Source: patent publication US20230389548A1, “MIXTURES OF PYRIMIDINES AS HERBICIDAL COMPOSITIONS” (SYNGENTA CROP PROTECTION AG, priority 2020, published 2023)

Experiments:
Experiment in all cases: Post-emergence glasshouse spray test, visual percentage phytotoxicity after 13 days
Type in all cases: in vivo
[1] = test system: Digitaria sanguinalis (DIGSA); conditions: for DIGSA percentage phytotoxicity: B1
Method: (§1) Seeds of Setaria faberi (SETFA), Echinochloa crus-galli (ECHCG), Digitaria sanguinalis (DIGSA), Lolium perenne (LOLPE), Alopecurus myosuroides (ALOMY), Chenopodium album (CHEAL), Ipomoea hederacea (IPOHE), Stellaria media (STEME), Abutilon threophrasti (ABUTH), Amaranthus retroflexus (AMARE) were sown in standard sterilised soil in pots. After cultivation for 8 days under controlled conditions in a glasshouse (at 24/19° C., day/night; 16 hours light; no humidity control), the plants were sprayed at 500 l/Ha with an aqueous spray solution derived from the formulation of the technical active ingredients in a small amount of acetone and a solvent and emulsifier mixture referred to as IF50 (11.12% Emulsogen EL360™+44.44% N-methylpyrrolidone+44.44% Dowanol DPM glycol ether), to create a 50 g/l solution which was then diluted using 0.2% Genapol XO80 (CAS Number: 9043-30-5) as diluent to give the desired final dose of test compound.
(§2) Where active ingredients were applied as mixtures, aqueous spray solutions were prepared as above, containing both active ingredients.
(§3) The test plants were then grown under controlled conditions in a glasshouse (at 24/18° C., day/night; 15 hours light; 50% humidity) and watered twice daily. After 13 days, the test was evaluated visually for percentage phytotoxicity to the plants (where 100=total damage to plant; 0=no damage to plant; and NC=not captured) when compared to control untreated plants. Two to four replicates were applied for each treatment in a randomised block test design.
(§4) 22., E=X+Y−(X*Y/100), where
(§5) X=average percent phytotoxicity of herbicide A when applied at a certain rate Y=average percent phytotoxicity using herbicide B when applied at a certain rate E=the expected effect of the mixture of herbicides A and B as calculated from the Colby formula.

[2] = test system: Amaranthus retroflexus (AMARE); conditions: B1
Method: as §1, §2, §3, §4, §5

[3] = test system: Ipomoea hederacea (IPOHE); conditions: B1
Method: as §1, §2, §3, §4, §5

Setaria faberi (SETFA) = conditions: B1
Method: as §1, §2, §3, §4, §5

[4] = test system: Alopecurus myosuroides (ALOMY); conditions: B1
Method: as §1, §2, §3, §4, §5

Stellaria media (STEME) = conditions: B1
Method: as §1, §2, §3, §4, §5

[5] = test system: Chenopodium album (CHEAL); conditions: B1
Method: as §1, §2, §3, §4, §5

[6] = test system: Abutilon threophrasti (ABUTH); conditions: B1
Method: as §1, §2, §3, §4, §5

Lolium perenne (LOLPE) = conditions: for LOLPE percentage phytotoxicity: B1
Method: as §1, §2, §3, §4, §5

## COc1c(Cl)ccc(-c2nc(C(=O)OCc3ccccc3)c(Cl)c(N)c2F)c1F [B-I]
[1]; 0.625 g/ha post-emergence
  DIGSA percentage phytotoxicity: 0%
[1]; 1.25 g/ha post-emergence
  DIGSA percentage phytotoxicity: 3%
[1]; 2.5 g/ha post-emergence
  DIGSA percentage phytotoxicity: 5%
[1]; 5 g/ha post-emergence
  DIGSA percentage phytotoxicity: 0%
[1]; 10 g/ha post-emergence
  DIGSA percentage phytotoxicity: 10%
[1]; B2.5.1, 5 g/ha post-emergence
  Observed phytotoxicity DIGSA: 0%
[2]; 0.625 g/ha post-emergence
  AMARE percentage phytotoxicity: 53%
[2]; 1.25 g/ha post-emergence
  AMARE percentage phytotoxicity: 58%
[2]; 2.5 g/ha post-emergence
  AMARE percentage phytotoxicity: 65%
[2]; 5 g/ha post-emergence
  AMARE percentage phytotoxicity: 58%
[2]; 10 g/ha post-emergence
  AMARE percentage phytotoxicity: 70%
[3]; 0.625 g/ha post-emergence
  IPOHE percentage phytotoxicity: 13%
[3]; 1.25 g/ha post-emergence
  IPOHE percentage phytotoxicity: 33%
[3]; 2.5 g/ha post-emergence
  IPOHE percentage phytotoxicity: 58%
[3]; 5 g/ha post-emergence
  IPOHE percentage phytotoxicity: 55%
[3]; 10 g/ha post-emergence
  IPOHE percentage phytotoxicity: 53%
Setaria faberi (SETFA); 0.625 g/ha post-emergence
  SETFA percentage phytotoxicity: 0%
Setaria faberi (SETFA); 1.25 g/ha post-emergence
  SETFA percentage phytotoxicity: 0%
Setaria faberi (SETFA); 2.5 g/ha post-emergence
  SETFA percentage phytotoxicity: 5%
Setaria faberi (SETFA); 5 g/ha post-emergence
  SETFA percentage phytotoxicity: 3%
Setaria faberi (SETFA); 10 g/ha post-emergence
  SETFA percentage phytotoxicity: 20%
[4]; 0.625 g/ha post-emergence
  ALOMY percentage phytotoxicity: 0%
[4]; 1.25 g/ha post-emergence
  ALOMY percentage phytotoxicity: 0%
[4]; 2.5 g/ha post-emergence
  ALOMY percentage phytotoxicity: 0%
[4]; 5 g/ha post-emergence
  ALOMY percentage phytotoxicity: 0%
[4]; 10 g/ha post-emergence
  ALOMY percentage phytotoxicity: 3%
Stellaria media (STEME); 0.625 g/ha post-emergence
  STEME percentage phytotoxicity: 50%
Stellaria media (STEME); 1.25 g/ha post-emergence
  STEME percentage phytotoxicity: 58%
Stellaria media (STEME); 2.5 g/ha post-emergence
  STEME percentage phytotoxicity: 75%
Stellaria media (STEME); 5 g/ha post-emergence
  STEME percentage phytotoxicity: 70%
Stellaria media (STEME); 10 g/ha post-emergence
  STEME percentage phytotoxicity: 85%
[5]; 0.625 g/ha post-emergence
  CHEAL percentage phytotoxicity: 63%
[5]; 1.25 g/ha post-emergence
  CHEAL percentage phytotoxicity: 63%
[5]; 2.5 g/ha post-emergence
  CHEAL percentage phytotoxicity: 60%
[5]; 5 g/ha post-emergence
  CHEAL percentage phytotoxicity: 70%
[5]; 10 g/ha post-emergence
  CHEAL percentage phytotoxicity: 75%
[6]; 0.625 g/ha post-emergence
  ABUTH percentage phytotoxicity: 75%
[6]; 1.25 g/ha post-emergence
  ABUTH percentage phytotoxicity: 83%
[6]; 2.5 g/ha post-emergence
  ABUTH percentage phytotoxicity: 80%
[6]; 5 g/ha post-emergence
  ABUTH percentage phytotoxicity: 80%
[6]; 10 g/ha post-emergence
  ABUTH percentage phytotoxicity: 85%
Lolium perenne (LOLPE); 0.625 g/ha post-emergence
  LOLPE percentage phytotoxicity: 0%
Lolium perenne (LOLPE); 1.25 g/ha post-emergence
  LOLPE percentage phytotoxicity: 0%
Lolium perenne (LOLPE); 2.5 g/ha post-emergence
  LOLPE percentage phytotoxicity: 0%
Lolium perenne (LOLPE); 5 g/ha post-emergence
  LOLPE percentage phytotoxicity: 0%
Lolium perenne (LOLPE); 10 g/ha post-emergence
  LOLPE percentage phytotoxicity: 5%
Lolium perenne (LOLPE); B2.5.2, 5 g/ha post-emergence
  Observed phytotoxicity LOLPE: 0%
